Read-outs that look alike come from different tables or passages of the source.
Legend:
[1] = system: panel of 55 breast cancer cell lines; test: Cell growth inhibition assay (Cell Titer Glo, 72 h, 9 doses; GI50, TGI, LC50); type: cell-based, human; settings: Homo sapiens, read-out: GI50 (converted)
[2] = system: luminal, basal, claudin-low and ERBB2AMP breast cancer cell lines; test: Associations of clinically relevant subtypes and response (non-parametric ANOVA or t-test on GI50 ranks); type: cell-based, human; settings: Table 6; most sensitive subtype, FDR p<0.20
How it was run: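 GI50 values were compared between cell-line subtype groups by non-parametric ANOVA or t-test on ranks. P-values from three test sets were combined and FDR-corrected. Significant three-group effects were followed by post-hoc comparison of each group against all others, and FDR p<0.20 counted as significant.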

Structure (SMILES): CCNCCCNC/C=C\CNCCCNCC [CGC-11047]
- GI50 ([1]; 600MPE cell line, censored GI50 values): 468 µM
- GI50 ([1]; AU565, AU565 cell line, censored GI50 values): 288 µM
- GI50 ([1]; AU565, cell line AU565): 288 µM
- GI50 ([1]; BT-474, BT474 cell line, censored GI50 values): 269 µM
- GI50 ([1]; BT-474, cell line BT474): 269 µM
- GI50 ([1]; BT-483, BT483 cell line, censored GI50 values): 589 µM
- GI50 ([1]; BT-483, cell line BT483): 589 µM
- GI50 ([1]; BT-549, BT549 cell line, censored GI50 values): 29.5 µM
- GI50 ([1]; BT-549, cell line BT549): 29.5 µM
- GI50 ([1]; CAMA-1, CAMA1 cell line, censored GI50 values): 1260 µM
- GI50 ([1]; CAMA-1, cell line CAMA1): 1260 µM
- GI50 ([1]; HCC38, HCC38 cell line, censored GI50 values): 11.7 µM
- GI50 ([1]; HCC38, cell line HCC38): 11.7 µM
- GI50 ([1]; HCC70, HCC70 cell line, censored GI50 values): 2.09 µM
- GI50 ([1]; HCC70, cell line HCC70): 2.09 µM
- GI50 ([1]; HCC202, HCC202 cell line, censored GI50 values): 14.5 µM
- GI50 ([1]; HCC202, cell line HCC202): 14.5 µM
- GI50 ([1]; HCC1143, HCC1143 cell line, censored GI50 values): 112 µM
- GI50 ([1]; HCC1143, cell line HCC1143): 112 µM
- GI50 ([1]; HCC1187, HCC1187 cell line, censored GI50 values): 1550 µM
- GI50 ([1]; HCC1187, cell line HCC1187): 1550 µM
- GI50 ([1]; HCC1395, HCC1395 cell line, censored GI50 values): 87.1 µM
- GI50 ([1]; HCC1395, cell line HCC1395): 87.1 µM
- GI50 ([1]; HCC1419, HCC1419 cell line, censored GI50 values): 14.1 µM
- GI50 ([1]; HCC1419, cell line HCC1419): 14.1 µM
- GI50 ([1]; HCC1428, HCC1428 cell line, censored GI50 values): 204 µM
- GI50 ([1]; HCC1428, cell line HCC1428): 204 µM
- GI50 ([1]; HCC1500, HCC1500 cell line, censored GI50 values): 63.1 µM
- GI50 ([1]; HCC1500, cell line HCC1500): 63.1 µM
- GI50 ([1]; HCC1806, HCC1806 cell line, censored GI50 values): 74.1 µM
- GI50 ([1]; HCC1806, cell line HCC1806): 74.1 µM
- GI50 ([1]; HCC1937, HCC1937 cell line, censored GI50 values): 6.92 µM
- GI50 ([1]; HCC1937, cell line HCC1937): 6.92 µM
- GI50 ([1]; HCC1954, HCC1954 cell line, censored GI50 values): 0.692 µM
- GI50 ([1]; HCC1954, cell line HCC1954): 0.692 µM
- GI50 ([1]; HCC2185 cell line, censored GI50 values): 407 µM
- GI50 ([1]; HCC3153 cell line, censored GI50 values): 5.75 µM
- GI50 ([1]; LY2 cell line, censored GI50 values): 1510 µM
- GI50 ([1]; MCF7, MCF7 cell line, censored GI50 values): 85.1 µM
- GI50 ([1]; MCF7, cell line MCF7): 85.1 µM
- GI50 ([1]; MDA-MB-134-VI, MDAMB134VI cell line, censored GI50 values): 1070 µM
- GI50 ([1]; MDA-MB-157, MDAMB157 cell line, censored GI50 values): 1020 µM
- GI50 ([1]; MDA-MB-157, cell line MDAMB157): 1020 µM
- GI50 ([1]; MDA-MB-175-VII, MDAMB175VII cell line, censored GI50 values): 617 µM
- GI50 ([1]; MDA-MB-231, MDAMB231 cell line, censored GI50 values): 2510 µM
- GI50 ([1]; MDA-MB-231, cell line MDAMB231): 2510 µM
- GI50 ([1]; MDA-MB-361, MDAMB361 cell line, censored GI50 values): 708 µM
- GI50 ([1]; MDA-MB-361, cell line MDAMB361): 708 µM
- GI50 ([1]; MDA-MB-415, MDAMB415 cell line, censored GI50 values): 75.9 µM
- GI50 ([1]; MDA-MB-415, cell line MDAMB415): 75.9 µM
- GI50 ([1]; MDA-MB-436, MDAMB436 cell line, censored GI50 values): 380 µM
- GI50 ([1]; MDA-MB-436, cell line MDAMB436): 380 µM
- GI50 ([1]; MDA-MB-453, MDAMB453 cell line, censored GI50 values): 501 µM
- GI50 ([1]; MDA-MB-453, cell line MDAMB453): 501 µM
- GI50 ([1]; MDA-MB-468, MDAMB468 cell line, censored GI50 values): 0.891 µM
- GI50 ([1]; MDA-MB-468, cell line MDAMB468): 0.891 µM
- GI50 ([1]; SK-BR-3, cell line SKBR3): 5010 µM
- GI50 ([1]; SUM52PE, cell line SUM52PE): 3.55 µM
- GI50 ([1]; SUM149PT, SUM149PT cell line, censored GI50 values): 28.8 µM
- GI50 ([1]; SUM149PT, cell line SUM149PT): 28.8 µM
- GI50 ([1]; SUM185PE, cell line SUM185PE): 501 µM
- GI50 ([1]; SUM1315MO2, SUM1315MO2 cell line, censored GI50 values): 708 µM
- GI50 ([1]; SUM-159-PT, SUM159PT cell line, censored GI50 values): 107 µM
- GI50 ([1]; SUM-159-PT, cell line SUM159PT): 107 µM
- GI50 ([1]; T47D, cell line T47D): 9.33 µM
- GI50 ([1]; UACC-812, cell line UACC812): 339 µM
- GI50 ([1]; UACC-893, cell line UACC893): 2090 µM
- GI50 ([1]; ZR-75-1, cell line ZR751): 501 µM
- GI50 ([1]; ZR-75-30, cell line ZR7530): 5010 µM
- GI50 ([1]; ZR-75B, cell line ZR75B): 562 µM
- GI50 ([1]; cell line 600MPE): 468 µM
- GI50 ([1]; cell line HCC2185): 407 µM
- GI50 ([1]; cell line HCC3153): 5.75 µM
- GI50 ([1]; cell line LY2): 1510 µM
- GI50 ([1]; cell line MDAMB134V): 1070 µM
- GI50 ([1]; cell line MDAMB175V): 617 µM
- GI50 ([1]; cell line SUM1315MO): 708 µM
- Subtype specificity [2]: Basal

Source: patent US10770169B2, “Method of providing a treatment to a subject based on a dynamic pathway map” (THE REGENTS OF THE UNIVERSITY OF CALIFORNIA, priority 2010, dated 2020)
